Test results: US5466717A, “Halogenated 4'-methoxyacetophenones as microbicides and preservatives” (Buckman Laboratories Int'l, Inc., priority 1993, dated 1995)
In brackets after ≈: the same amount, converted by molar mass. Read-outs that look alike come from different tables or passages of the source.

Assays:
[1] = test system: Pseudomonas aeruginosa, Enterobacter serogenes and Bacillus subtilus; experiment: Preservation of acrylic latex paint, 9 week multiple challenge test (Table 1); type: cell-based; parameters: key: 0: no growth was observed; +: less than 10 colonies were observed; ++: 10 or more colonies were observed
Protocol: The preservative effectiveness of compounds 1 and 2 was determined in a freshly prepared water-based paint formulated with titanium dioxide and calcium carbonate as pigments, an acrylic resin emulsion, dispersants, and hydroxyethyl cellulose as a thickener. The pH of this paint was approximately 9.0. […] One hundred gram samples of the test paints were challenged initially and at the end of the third and sixth weeks in a three-challenge, nine-week test with 1.0 milliliter of […] containing Pseudomonas aeruginosa, Enterobacter serogenes and Bacillus subtilus at a level of approximately 1.5×10^6 organisms per milliliter. After vigorous shaking, the inoculated paint was incubated at 28° C. Growth in system was monitored by streaking a sample of each test paint onto a nutrient agar on plates at intervals of 1 day, 2 days, 3 days, 7 days, and 21 days after each challenge. The streaked plates were incubated at 37° C. and examined for bacterial growth after 24 hours (challenge 1). A second sample of the same inoculated paint was rechallenged at the end of 21 days (challenge 2) and again at the end of 42 days (challenge 3).

Chlorella pyrenoidosa = experiment: Growth inhibition of algae in Difco Algae Broth (Table 6); type: cell-based; settings: Auxenochlorella pyrenoidosa, 672 h, read-out: Minimum inhibitory concentration
Protocol: The growth-inhibiting activity of the method of the invention against the algae Chlorella pyrenoidosa was evaluated at two different pH levels in Difco Algae Broth. The content of the broth was as follows: Forty-gram portions of the algae medium were added to 250 mL Erlenmeyer flasks fitted with loose metal caps and were then sterilized. Each of the following substances was then added to the flasks in the order listed: (1) Sterile algae medium as required to bring the total weight of the contents of each flask to 50 grams, after allowing for all subsequent additions specified below. (2) A solution of the toxicant or of a control agent to be evaluated in each test, to give the concentration desired in parts per million by weight. (3) Chlorella pyrenoidosa, in amounts sufficient to give excellent growth in the controls after 14 days. This was achieved by adding 1 milliliter of a 14 day old culture having luxuriant growth. The Chlorella pyrenoidosa culture was obtained from American Type Culture Collection No. 7516. Control experiments were carried out where no toxicants were employed. In the algicidal tests the growth of algae in the nutrient is lush green and can be seen with the naked eye. Since the minimum inhibitory concentrations of the compounds in this example are those which result in complete inhibition, evaluation of the test results is not subjective. After the inoculum of the test algae was added, the flasks were incubated at a temperature of 28°±2° C. under fluorescent illumination of 250 foot-candle intensity (8 hours light, 16 hours darkness) for a period adequate for growth in the controls (those portions of medium which contained no toxicant). Observations of growth were made at 7-day intervals. Minimum inhibitory concentrations are those that prevented complete growth after 28 days.

[2] = test system: Aspergillus sp., Aureobasidium sp., Trichoderma sp., Penicillium sp., and Chaetomium sp.; experiment: Resistance to growth of mold on the surface of interior coatings in an environmental chamber, ASTM D3273-86 (Table 4); parameters: key: 10: no mold growth; 9: very slight mold growth; 8: slight growth; 7: slight to medium growth; 6: slight to medium growth; 5: failure (extensive growth)
Protocol: A standard method to determine the resistance to growth of mold on the surface of interior coatings in an environmental chamber, ASTM method D3273-86, was used to determine the effectiveness of compounds 1 and 2.
Treatments were prepared by dissolving 2.0 g of the compounds of the present invention in 10 mL of acetone/methanol. Two types of paint were used: namely, an alkyd (self-priming white with Beckasol 296-70) and a latex (self-priming, alkyd-modified acrylic paint). […] Each sample was shaken vigorously for 5 minutes using a standard paint shaker.
Blocks of drywall having two inch by four inch dimensions were painted on the front surface and on all edges with two coats of the respective treatments. After drying, the back side was painted with one coat of clear latex. A hole was drilled half-way through the block at one end, and duplicate blocks per treatment were hung in an environmental chamber.
The aggressive nature of the interior of the chamber was developed by inoculating trays of moist potting soil with active cultures of Aspergillus sp., Aureobasidium sp., Trichoderma sp., Penicillium sp., and Chaetomium sp. The chamber was maintained at 100 percent relative humidity and 32° C. Final observations were made after four weeks (for latex blocks) or eight weeks (for alkyd blocks).

Enterobacter aerogenes = experiment: Pulp substrate method, percent kill of E. aerogenes (Table 2); type: cell-based; settings: for killing at 1 ppm / killing at 2 ppm / killing at 4 ppm / killing at 8 ppm / killing at 10 ppm / killing at 15 ppm / killing at 20 ppm / killing at 25 ppm: Klebsiella aerogenes, pulp substrate, read-out: % Kill of E. aerugenes
Protocol: Compounds 1 and 2 were tested by the pulp substrate method described in detail in U.S. Pat. No. 2,881,070, column 5, line 12--column 6, line 53. The disclosure of U.S. Pat. No. 2,881,070 is specifically incorporated here by reference. […] The tests utilized Enterobacter aerogenes and Pseudomonas aeruginosa in pulp substrates that had been buffered at pH 7.0 and 8.0.

## COc1ccc(C(=O)C(Br)Br)cc1Br [Compound 2, 2,2,3'-tribromo-4'-methoxyacetophenone]
[1]; 100 ppm w/w, challenge 1
  Observation of growth 21 days after challenge: ++ (10 or more colonies were observed)
[1]; 100 ppm w/w, challenge 2
  Observation of growth 21 days after challenge: ++ (10 or more colonies were observed)
[1]; 100 ppm w/w, challenge 3
  Observation of growth 21 days after challenge: ++ (10 or more colonies were observed)
[1]; 250 ppm w/w, challenge 1
  Observation of growth 21 days after challenge: 0
[1]; 250 ppm w/w, challenge 2
  Observation of growth 21 days after challenge: 0
[1]; 250 ppm w/w, challenge 3
  Observation of growth 21 days after challenge: 0
[1]; 500 ppm w/w, challenge 1
  Observation of growth 21 days after challenge: 0
[1]; 500 ppm w/w, challenge 2
  Observation of growth 21 days after challenge: 0
[1]; 500 ppm w/w, challenge 3
  Observation of growth 21 days after challenge: 0
[1]; 2500 ppm w/w, challenge 1
  Observation of growth 21 days after challenge: 0
[1]; 2500 ppm w/w, challenge 2
  Observation of growth 21 days after challenge: 0
[1]; 2500 ppm w/w, challenge 3
  Observation of growth 21 days after challenge: 0
[1]; 5000 ppm w/w, challenge 1
  Observation of growth 21 days after challenge: 0
[1]; 5000 ppm w/w, challenge 2
  Observation of growth 21 days after challenge: 0
[1]; 5000 ppm w/w, challenge 3
  Observation of growth 21 days after challenge: 0
Chlorella pyrenoidosa; pH 7.0, 28 days
  MIC: 8 mg/L (≈ 20.7 µM)
Chlorella pyrenoidosa; pH 8.0, 28 days
  MIC: 4 mg/L (≈ 10.3 µM)
[2]; 0.01 % by weight, alkyd, eight weeks
  Growth of mold on the surface of interior coatings: 5
[2]; 0.01 % by weight, latex, four weeks
  Growth of mold on the surface of interior coatings: 9
[2]; 0.025 % by weight, alkyd, eight weeks
  Growth of mold on the surface of interior coatings: 5
[2]; 0.025 % by weight, latex, four weeks
  Growth of mold on the surface of interior coatings: 10
[2]; 0.05 % by weight, alkyd, eight weeks
  Growth of mold on the surface of interior coatings: 6
[2]; 0.05 % by weight, latex, four weeks
  Growth of mold on the surface of interior coatings: 10
[2]; 0.10 % by weight, alkyd, eight weeks
  Growth of mold on the surface of interior coatings: 8
[2]; 0.10 % by weight, latex, four weeks
  Growth of mold on the surface of interior coatings: 10
[2]; 0.25 % by weight, alkyd, eight weeks
  Growth of mold on the surface of interior coatings: 10
[2]; 0.25 % by weight, latex, four weeks
  Growth of mold on the surface of interior coatings: 10
[2]; 0.50 % by weight, alkyd, eight weeks
  Growth of mold on the surface of interior coatings: 10
[2]; 0.50 % by weight, latex, four weeks
  Growth of mold on the surface of interior coatings: 10
Enterobacter aerogenes; pH 7.0
  killing at 1 ppm: 12%
  killing at 2 ppm: 22%
  killing at 4 ppm: 41%
  killing at 8 ppm: 35%
  killing at 10 ppm: 39%
  killing at 15 ppm: 52%
  killing at 20 ppm: 45%
  killing at 25 ppm: 51%
Enterobacter aerogenes; pH 8.0
  killing at 1 ppm: 9%
  killing at 2 ppm: 43%
  killing at 4 ppm: 83%
  killing at 8 ppm: 91%
  killing at 10 ppm: 89%
  killing at 15 ppm: 96%
  killing at 20 ppm: 98%
  killing at 25 ppm: 99%
Enterobacter aerogenes; at both neutral and alkaline pH, conclusion from Table 2 (E. aerogenes and P. aeruginosa)
  bactericidal activity (in words): good bactericides
